Experiment: HILIC, Waters Atlantis Premier BEH Z-HILIC, 100 × 2.1 mm, 1.7 µm, 40 °C, 0.15 mL/min, estimated dead time 1.5 min; A: water + 20 mM ammonium carbonate + 5 µM medronic acid; B: 10% water + 90% acetonitrile + 2 mM ammonium carbonate + 0.5 µM medronic acid; gradient (min/%B) 0/95 18/55 18.1/20 21.5/20 22/95 23.5/95 25.5/95
Conditions: stereoisomer not certain

LC retention time [min]	Structure (SMILES)
8.94	O=C(O)CCC(=O)C(=O)O [2-Oxoglutaric acid]
9.45	O=C(O)CCC(O)C(=O)O (configuration not stated) [2-hydroxy glutaric acid]
11.3	Nc1ncnc2c1ncn2C1OC(COP(=O)(O)OP(=O)(O)O)C(O)C1O (configuration not stated) [ADP]
9.36	Nc1ncnc2c1ncn2C1OC(COP(=O)(O)O)C(O)C1O (configuration not stated) [AMP]
13.2	Nc1ncnc2c1ncn2C1OC(COP(=O)(O)OP(=O)(O)OP(=O)(O)O)C(O)C1O (configuration not stated) [ATP]
10.1	CC(=O)SCCNC(=O)CCNC(=O)C(O)C(C)(C)COP(=O)(O)OP(=O)(O)OCC1OC(n2cnc3c(N)ncnc32)C(O)C1OP(=O)(O)O (configuration not stated) [Acetyl-CoA]
4.11	Nc1ncnc2c1ncn2C1OC(CO)C(O)C1O (configuration not stated) [Adenosine]
19.3	NC(N)=NCCCC(N)C(=O)O (configuration not stated) [Arginine]
4.5	O=C(O)CCCCC1SCC2NC(=O)NC21 (configuration not stated) [Biotin]
9.85	C[N+](C)(C)CC(O)CC(=O)[O-] (configuration not stated) [Carnitine]
13.8	O=C(O)CC(O)(CC(=O)O)C(=O)O [Citric acid]
11.8	CC(C)(COP(=O)(O)OP(=O)(O)OCC1OC(n2cnc3c(N)ncnc32)C(O)C1OP(=O)(O)O)C(O)C(=O)NCCC(=O)NCCS (configuration not stated) [CoenzymeA]
7.24	Cc1cc2nc3c(=O)[nH]c(=O)nc-3n(CC(O)C(O)C(O)COP(=O)(O)OP(=O)(O)OCC3OC(n4cnc5c(N)ncnc54)C(O)C3O)c2cc1C (configuration not stated) [FAD]
11.3	O=C(CO)C(O)C(O)C(O)COP(=O)(O)O (configuration not stated) [Fructose 6-phosphate]
15.5	O=P(O)(O)OCC1OC(O)(COP(=O)(O)O)C(O)C1O (configuration not stated) [Fructose-1,6-bisphosphate]
15.7	Nc1nc2c(ncn2C2OC(COP(=O)(O)OP(=O)(O)OP(=O)(O)O)C(O)C2O)c(=O)[nH]1 (configuration not stated) [GTP]
12.3	O=P(O)(O)OCC1OC(O)C(O)C(O)C1O (configuration not stated) [Glucose-6-phosphate]
9.67	NC(CCC(=O)O)C(=O)O (configuration not stated) [Glutamic acid]
10.3	NC(=O)CCC(N)C(=O)O (configuration not stated) [Glutamine]

LC retention time [min]	Structure (SMILES)
10.2	O=P(O)(O)OCC(O)CO (configuration not stated) [Glycerol-3-phosphate]
7.63	OCC1OC(O)C(O)C(O)C1O (configuration not stated) [Hexose]
13.5	O=C(O)CC(C(=O)O)C(O)C(=O)O (configuration not stated) [Isocitric acid]
6.42	CCC(C)C(N)C(=O)O (configuration not stated) [Isoleucine]
3.43	CC(O)C(=O)O (configuration not stated) [Lactic Acid]
6.03	CC(C)CC(N)C(=O)O (configuration not stated) [Leucine]
19.5	NCCCCC(N)C(=O)O (configuration not stated) [Lysine]
8.54	NC(=O)C1=CN(C2OC(COP(=O)(O)OP(=O)(O)OCC3OC(n4cnc5c(N)ncnc54)C(O)C3O)C(O)C2O)C=CC1 (configuration not stated) [NADH]
13.7	NC(=O)C1=CN(C2OC(COP(=O)(O)OP(=O)(O)OCC3OC(n4cnc5c(N)ncnc54)C(OP(=O)(O)O)C3O)C(O)C2O)C=CC1 (configuration not stated) [NADPH]
13.2	NC(=O)c1ccc[n+](C2OC(COP(=O)(O)OP(=O)(O)OCC3OC(n4cnc5c(N)ncnc54)C(OP(=O)(O)O)C3O)C(O)C2O)c1 (configuration not stated) [NADP]
10.2	NC(=O)c1ccc[n+](C2OC(COP(=O)(O)OP(=O)(O)OCC3OC(n4cnc5c(N)ncnc54)C(O)C3O)C(O)C2O)c1 (configuration not stated) [NAD]
13.3	C=C(OP(=O)(O)O)C(=O)O [PEP]
12.4	O=C(O)C(CO)OP(=O)(O)O (configuration not stated) [Phosphoglyceric acid A]
9.51	O=C(O)CCC(=O)O [Succinic Acid]
10.2	O=C(CO)COP(=O)(O)O [Triose phosphate]
9.78	CC(=O)NC1C(OP(=O)(O)OP(=O)(O)OCC2OC(n3ccc(=O)[nH]c3=O)C(O)C2O)OC(CO)C(O)C1O (configuration not stated) [UDP-GlcNAc]
6.52	CCC(=O)OC(CC(=O)[O-])C[N+](C)(C)C (configuration not stated) [carnitine-C3]
4.59	O=C1CC(C(=O)O)NC(=O)N1 (configuration not stated) [dihydroorotic acid]

From the RepoRT retention time repository
